What was measured:
microsporidia [1] = test: Protoberberines in a hamster animal model of microsporidial chronic diarrhea (Example 5); type: in vivo; settings: 52 mg/kg/day oral; for condition of the hamsters / diarrhea: after 10 days; for presence of microsporidia in intestinal biopsy: following therapy
Experimental: Ten hamsters suffering from chronic diarrhea caused by microsporidia are randomized into two groups of 5 hamsters. One group receives the protoberberine palmatine and the second group receives the protoberberine dihydroberberine. The protoberberines are administered orally at a dose rate of 52 mg/kg/day for ten (10) days.

microsporidia [2] = test: Protoberberines in a mouse animal model of microsporidial chronic diarrhea (Example 6); type: in vivo; settings: 52 mg/kg/day oral; for condition of the mice / diarrhea: after 10 days; for presence of microsporidia in intestinal biopsy: following therapy
Experimental: Ten mice suffering from chronic diarrhea caused by microsporidia are randomized into two groups of 5 mice. One group receives the protoberberine palmatine and the second group receives the protoberberine jatrorrhizine. The protoberberines are administered orally at a dose rate of 52 mg/kg/day for ten (10) days.

cryptosporidia = settings: cited from earlier work
diarrhea = test: Prophylactic use of berberines in HIV infected patients (Example 7); type: in vivo, human; settings: low dose of Example 2, two months, 25 patients
Experimental: Twenty five (25) HIV infected patients, 18 years of age or older, not presenting with chronic diarrhea, are selected. Blood specimens are evaluated to confirm that each patient is HIV seropositive.
Each of the twenty five (25) patients receives a treatment with berberine according to the low dose of Example 2 for a period of two months.

[3] = oral, high doses; cited from earlier work

| SMILES | condition of the hamsters (microsporidia [1]) | diarrhea (microsporidia [1]) | presence of microsporidia in intestinal biopsy (microsporidia [1]) | condition of the mice (microsporidia [2]) | diarrhea (microsporidia [2]) | presence of microsporidia in intestinal biopsy (microsporidia [2]) | further results |
| --- | --- | --- | --- | --- | --- | --- | --- |
| COc1cc2c(cc1OC)-c1cc3ccc(OC)c(OC)c3c[n+]1CC2 [palmatine] | improved | none of the hamsters have diarrhea | does not reveal the presence of microsporidia | improved | none of the mice have diarrhea | does not reveal the presence of microsporidia |  |
| COc1cc2c(cc1O)CC[n+]1cc3c(OC)c(OC)ccc3cc1-2 [jatrorrhizine] |  |  |  | improved | none of the mice have diarrhea | does not reveal the presence of microsporidia |  |
| C[C@@H](O)[C@@H]1NC(=O)[C@H](CCCCN)NC(=O)[C@@H](Cc2c[nH]c3ccccc23)NC(=O)[C@H](Cc2ccccc2)NC(=O)[C@@H](NC(=O)[C@H](N)Cc2ccccc2)CSSC[C@@H](C(=O)N[C@H](CO)[C@@H](C)O)NC1=O [octreotide] |  |  |  |  |  |  | control of gastrointestinal secretion (cryptosporidia; AIDS patients): control the voluminous gastrointestinal secretion; return of diarrhea (cryptosporidia; following cessation of treatment): diarrhea promptly returns |
| COc1ccc2c(c1OC)CN1CCc3cc4c(cc3C1=C2)OCO4 [dihydroberberine] | improved | none of the hamsters have diarrhea | does not reveal the presence of microsporidia |  |  |  |  |
| COc1ccc2cc3[n+](cc2c1OC)CCc1cc2c(cc1-3)OCO2 [berberine, 5,6-Dihydro-9,10-dimethoxybenzo[g]-1,3-benzodioxolo[5,6-a]quinolizinium] |  |  |  |  |  |  | tolerability / adverse reactions (diarrhea): all of the patients tolerate the treatment well with no or minimal adverse reactions; toxicity [3]: nontoxic at high doses |

— patent publication US6280768A, “Berberine alkaloids as a treatment for chronic protozoally induced diarrhea” (PRM Pharmaceuticals, Inc., priority 1997, dated 2001)
